Source: patent publication US4888335A, “3-alkoxy-2-aminopropyl heterocyclic amines and their use as cardiovascular agents” (McNeilab, Inc., priority 1988, dated 1989)
Structures can show the parent of a compound that is named as a salt.

Columns and labels:
[1] = tested on: Langendorff's isolated heart (coronary flow); experiment: Langendorff isolated heart (increase in coronary flow); conditions: tested at 30.0 to 0.01 micromolar
Experimental: In addition to their utility in the treatment of hypertension, the compounds of formula (I) are useful in the treatment of the symptoms of angina pectoris by virtue of their ability to dilate coronary arteries. Their activity was measured using the "Langendorff's isolated heart" preparation. This test has been described in "Pharmacological Experiments on Isolated Preparations", Staff of the Department of Pharmacology, University of Edinbourgh, 2nd Ed., Churchill Livingstone, N.Y., 1970, pp 112-119. The test compounds were administered at concentrations of 30.0, 10.0, 3.0, 1.0, 0.3, 0.1, 0.03 and 0.01 micromolar (10^-6 molar). The minimum concentration EC30) needed to elicit a 30% increase in coronary flow is shown in Table I for compounds of formula (I).

[2] = tested on: spontaneously hypertensive rats (mean arterial pressure); experiment: Spontaneously Hypertensive Rat (SHR) test, fall in mean arterial pressure; format: in vivo; conditions: active if fall >15 mm of Hg
Experimental: The activity of compounds of formula (I) for the treatment of hypertension was determined using the Spontaneously Hypertensive Rat (SHR) test as described below. Spontaneously Hypertensive Rat Test In this test, the arterial pressure of adult spontaneously hypertensive rats (Charles River) is monitored directly via an aortic cannula. The SH rats are anesthetized with an inhalation anesthetic (ether). The left carotoid artery is isolated and cannulated. The tip of the cannula is advanced to the aorta and the cannula is exteriorized behind the neck at the level of the scapula. Animals are placed in individual cages, allowed to recover from the anesthetic and are kept unrestrained. The arterial cannula is connected to a pressure transducer which is attached to a recorder. The test compounds are administered to at least 3 rats at doses selected in the range of 0.1 to 100 mg/kg of body weight by i.p. or p.o. routes of administration. The arterial pressure and heart rate are monitored for a minimum of 24 hr. A test compound is considered to be active as an antihypertensive agent if the mean arterial pressure (MAP) indicates a fall (δMAP) of >15 mm of Hg. Each animal serves as its own control.

Row | SMILES | Langendorff EC30 (minimum concentration needed to elicit a 30% increase in coronary flow) [1] | SHR δMAP (change in mean arterial pressure) ([2]; 10 mg/kg i.p.) | SHR δMAP (change in mean arterial pressure) ([2]; 30 mg/kg i.p.) | SHR δMAP (change in mean arterial pressure) ([2]; 30 mg/kg p.o.)
1 | CC(C)COCC(CN1Cc2ccccc2Cc2ccccc21)N1CCCC1 (centres unmarked) [Example 1, 5,6-Dihydro-5-[3-(2-methylpropoxy)-2-(1-pyrrolidinyl)-propyl]-11H -dibenz[b,e]azepine] | .013 10^-6 M | -37 mm of Hg | -65 mm of Hg | –
2 | CC(C)COCC(CN1Cc2ccccc2CCc2ccccc21)N1CCCC1 (stereo not drawn) [Example 2b, 5,6,11,12-Tetrahydro-5-beta-[3-(2-methylpropoxy)-2-(1-pyrrolidinyl)propyl]dibenz[b,f]azocine Hydrate (5:1)] | .150 10^-6 M | – | – | -25 mm of Hg
3 | CC(C)(C)COCC(CN1Cc2ccccc2Cc2ccccc21)N1CCCC1.O=C(O)/C=C/C(=O)O (centres unmarked) [Example 3c, 5,6-Dihydro-5-[3-(2,2-dimethylpropoxy)-2-(1-pyrrolidinyl)propyl]-11H-dibenz[b,e]azepine (E)-2-Butenedioate] | .004 10^-6 M | -54 mm of Hg | – | -2 mm of Hg
4 | CC(C)COCC(CN1c2ccccc2CCc2ccccc21)N1CCCC1 (centres unmarked) [Example 4, 10,11-dihydro-5-[3-(2-methylpropoxy)-2-(1-pyrrolidinyl)propyl]-5H-dibenz[b,f]azepine] | .011 10^-6 M | -65 mm of Hg | – | –
5 | CC(C)(C)COCC(CN1Cc2ccccc2Oc2ccccc21)N1CCCC1.O=C(O)/C=C/C(=O)O (centres unmarked) [Example 5b, 10,11-Dihydro-10-[3-(2,2-dimethylpropoxy)-2-(1-pyrrolidinyl)propyl]dibenz[b,f][1,4]oxazepine (E)-2-Butenedioate] | .04 10^-6 M | -70 mm of Hg | – | -20 mm of Hg
6 | CC(C)(C)COCC(CN1c2ccccc2C=Cc2ccccc21)N1CCCC1 (centres unmarked) [Example 6, 5-[3-(2,2 Dimethylpropxy)-2-(1-pyrrolidinyl)propyl]-5H-dibenz[b,f]azepine Hydrochloride] | .001 10^-6 M | -27 mm of Hg | – | –
7 | CC1(COCC(CN2c3ccccc3Oc3ccccc32)N2CCCC2)CCCCC1.Cl (centres unmarked) [Example 7d, 10-[3-[(1-Methylcyclohexyl)methoxy]-2-(1-pyrrolidinyl)-propyl]-10H-phenoxazine Hydrochloride (1:1)] | .012 10^-6 M | – | – | -24 mm of Hg
8 | CC1(COCC(CN2c3ccccc3C=Cc3ccccc32)N2CCCC2)CCCCC1 (centres unmarked) [Example 8, 5-[3-[(1-methylcyclohexyl)methoxy]-2-(1-pyrrolidinyl)propyl]-5H-dibenz[b,f]azepine] | .0037 10^-6 M | – | – | -12 mm of Hg
9 | CC(C)COCC(CN1c2ccccc2Sc2ccccc21)N1CCCC1 (centres unmarked) [Example 9, 10-[3-(2-Methylpropoxy)-2-(1-pyrrolidinyl)propyl]-10H-phenothiazine] | .30 10^-6 M | -22 mm of Hg | – | -19 mm of Hg
10 | C=C(C)COCC(CN1c2ccccc2C=Cc2ccccc21)N1CCCC1 (centres unmarked) [Example 10, 5-[3-(2-methyl-2-propenoxy)-2-(1-pyrrolidinyl)propyl]-5H-dibenz[b,f]azepine] | – | – | – | -25 mm of Hg
